For assay [1], the target named is T1, Tyrosine-protein kinase Lck (Homo sapiens, UniProt P06239). In words: Inhibition of p56 Lck tyrosine kinase in Jurkat cells where p56lck autophosphorylation is inhibited. The class given is cell-based.
Assay [2] has as its target T2, Epidermal growth factor receptor (Homo sapiens, UniProt P00533). As to the kind of experiment: Inhibition of Epidermal growth factor receptor autophosphorylation.
The target of assay [3] is T1, Tyrosine-protein kinase Lck. As to the kind of experiment: Inhibition of p56lck kinase autophosphorylation in Jurkat cells. Format: cell-based.
Assay [4] concerns the target T2, Epidermal growth factor receptor.
Description: Inhibition of Epidermal growth factor receptor autophosphorylation, 0.05-0.10

The values below come from ChEMBL document CHEMBL1129839, “The preparation and sar of 4-(anilino), 4-(phenoxy), and 4-(thiophenoxy)-quinazolines: Inhibitors of p56lck and EGF-R tyrosine kinase activity” (Bioorg Med Chem Lett, 1997).

T2 sequence (P00533 whole entry): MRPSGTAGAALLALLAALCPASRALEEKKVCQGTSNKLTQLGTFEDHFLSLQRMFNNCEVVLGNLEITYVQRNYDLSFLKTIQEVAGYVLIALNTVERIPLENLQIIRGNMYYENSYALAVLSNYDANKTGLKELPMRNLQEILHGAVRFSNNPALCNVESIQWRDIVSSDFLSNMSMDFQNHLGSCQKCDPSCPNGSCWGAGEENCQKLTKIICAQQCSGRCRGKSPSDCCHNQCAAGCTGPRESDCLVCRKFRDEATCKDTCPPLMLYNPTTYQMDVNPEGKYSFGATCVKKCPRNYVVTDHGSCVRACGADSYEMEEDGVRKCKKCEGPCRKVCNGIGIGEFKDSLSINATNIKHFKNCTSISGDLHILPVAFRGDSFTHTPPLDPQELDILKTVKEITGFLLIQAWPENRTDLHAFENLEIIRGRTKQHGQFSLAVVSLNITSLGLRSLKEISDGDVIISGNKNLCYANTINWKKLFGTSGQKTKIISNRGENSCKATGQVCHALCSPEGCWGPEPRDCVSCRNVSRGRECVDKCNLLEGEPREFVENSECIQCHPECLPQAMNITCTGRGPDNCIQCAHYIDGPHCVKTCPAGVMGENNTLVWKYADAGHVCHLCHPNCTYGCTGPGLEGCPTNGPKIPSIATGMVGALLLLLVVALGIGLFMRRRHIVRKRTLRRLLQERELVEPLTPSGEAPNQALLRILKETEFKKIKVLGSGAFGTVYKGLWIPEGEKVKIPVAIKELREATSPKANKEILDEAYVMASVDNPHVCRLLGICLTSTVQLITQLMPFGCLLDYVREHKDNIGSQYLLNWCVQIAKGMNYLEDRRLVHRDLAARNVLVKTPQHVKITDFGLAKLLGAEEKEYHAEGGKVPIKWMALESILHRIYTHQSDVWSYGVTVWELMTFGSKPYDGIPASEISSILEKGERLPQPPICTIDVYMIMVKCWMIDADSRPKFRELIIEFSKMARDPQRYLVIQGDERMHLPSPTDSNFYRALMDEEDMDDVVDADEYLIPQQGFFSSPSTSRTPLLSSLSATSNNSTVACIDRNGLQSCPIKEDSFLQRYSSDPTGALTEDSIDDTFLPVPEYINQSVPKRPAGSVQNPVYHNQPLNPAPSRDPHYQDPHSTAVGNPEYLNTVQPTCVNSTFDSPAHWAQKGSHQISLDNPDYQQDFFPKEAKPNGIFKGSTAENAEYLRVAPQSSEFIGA
T1 sequence (P06239 whole entry): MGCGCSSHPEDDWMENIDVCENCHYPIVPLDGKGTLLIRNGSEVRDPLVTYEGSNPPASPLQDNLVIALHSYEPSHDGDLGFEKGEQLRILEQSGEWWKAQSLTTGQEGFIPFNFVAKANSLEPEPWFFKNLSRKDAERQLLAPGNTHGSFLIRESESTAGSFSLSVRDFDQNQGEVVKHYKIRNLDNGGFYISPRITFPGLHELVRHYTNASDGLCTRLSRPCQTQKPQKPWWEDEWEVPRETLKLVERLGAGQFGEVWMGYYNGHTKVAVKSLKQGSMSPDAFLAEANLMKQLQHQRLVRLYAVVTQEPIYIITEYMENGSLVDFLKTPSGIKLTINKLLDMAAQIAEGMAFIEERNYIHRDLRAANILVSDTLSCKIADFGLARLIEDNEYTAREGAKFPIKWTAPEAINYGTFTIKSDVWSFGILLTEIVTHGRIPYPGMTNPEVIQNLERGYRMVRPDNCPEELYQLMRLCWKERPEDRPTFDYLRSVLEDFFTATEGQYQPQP

Turning to `COc1ccc(Sc2ncnc3cc(OC)c(OC)cc23)cc1OC`, the IC50 in assay [1] and in assay [2] was above 50 µM each time.
Regarding `COc1cc2ncnc(Oc3cccc(Cl)c3)c2cc1OC`, in assay [2], half-maximal inhibition (IC50) was put at 0.02 µM.
Still for that read-out and setting: next, `COc1cc2ncnc(Sc3cccc(Cl)c3)c2cc1OC`: 0.01 µM.
Compound `COc1cc(Nc2[nH]cnc3ncnc2-3)cc(OC)c1OC` came in with an IC50 in assay [1] of 50 µM.
Same read-out and setting: the figure for `COc1cc(Nc2[nH]cnc3nncc2-3)cc(OC)c1OC` is 10 µM.
The compound `COc1cc2ncnc(Nc3cccc(Cl)c3)c2cc1OC` had a 50% inhibitory concentration (IC50) in assay [3] of 5 µM.
In assay [1], `COc1cc2ncnc(Nc3cccc(F)c3)c2cc1OC` registered an IC50 of 10 µM. This lies in the double-digit micromolar range.
In the case of `COc1cc2nc(Cl)nc(Nc3cc(OC)c(OC)c(OC)c3)c2cc1OC`, the IC50 in assay [1] was above 100 µM; in assay [2], above 20 µM.
Take `COc1cc2ncnc(Nc3ccccc3)c2cc1OC`: in assay [3], the IC50 was 10 µM. In other words, the double-digit micromolar range.
In the case of `COc1ccc2ncnc(Nc3cc(OC)c(OC)c(OC)c3)c2c1`, the IC50 in assay [1] was 10 µM; in assay [2] it was 0.1 µM.
The matching figures for `COc1ccc(Nc2ncnc3cc(OC)c(OC)cc23)cc1`: 10 µM and 0.25 µM.
The matching figures for `COc1cc(Nc2ncnc3c(OC)c(OC)c(OC)cc23)cc(OC)c1OC`: above 100 µM and above 20 µM.
Regarding `COc1cc(Nc2ncnc3cc(OC)c(OC)cc23)cc(OC)c1`, the IC50 in assay [3] (jurkat) came out at 10 µM; in assay [2], 3 µM.
Turning to `COc1cc2ncnc(N(C)c3ccccc3)c2cc1OC`, the IC50 in assay [3] was above 100 µM.
With `COc1ccc(Nc2ncnc3cc(OC)c(OC)cc23)cc1OC`, the IC50 in assay [1] (jurkat) was determined as 10 µM; in assay [2], 0.35 µM.
As to `COc1cc(Nc2ncnc3c(C)cc(C)cc23)cc(OC)c1OC`, the IC50 in assay [1] was above 100 µM; in assay [2] it was above 20 µM.
In assay [2], `COc1cc2ncnc(NCc3ccccc3)c2cc1OC` gave an IC50 of 0.004 µM.
Consider `COc1cc(Nc2ncnc3ccc(Cl)cc23)cc(OC)c1OC`, for which the results for the IC50 in assay [1] and in assay [2] were above 50 µM and above 1 µM, respectively.
Regarding `COc1cc2ncnc(Nc3ccc(O)cc3)c2cc1OC`, the results for the IC50 in assay [1] and in assay [2] were 3 µM and 0.1 µM, respectively.
With `Clc1cccc(Nc2ncnc3ccccc23)c1`, the IC50 came out at 50 µM in assay [3] and 0.05 µM in assay [4].
With `COc1cc2ncnc(Nc3ccc4c(c3)CCC4)c2cc1OC`, half-maximal inhibition in assay [1] (IC50) required 50 µM.
With `COc1cc2ncnc(Nc3ccc(N4CCOCC4)cc3)c2cc1OC`, the IC50 in assay [1] is above 100 µM; in assay [2], above 1 µM.
The compound `COc1c(C=O)c(O)cc2c1C(=O)c1ccccc1C2=O` [DAMNACANTHAL] registered an IC50 in assay [1] of 0.017 µM.

By IC50 is commonly meant the point on the concentration scale where inhibition reaches its midpoint.
